From US20260041098A1, “POLYMERIC BATCH TO PREPARE AN ANTIMICROBIAL MATERIAL AND AIR FILTER” (IMPORTADORA Y EXPORTADORA JCN LIMITADA, priority 2021, published 2026)

Key:
Format in all cases: cell-based
E. coli ATCC 25922 [1] = experiment: Copper oxychloride agar diffusion test; conditions: 4,250-125,000 ppm tested, 37° C., 24 hours
Protocol: (§1) An agar diffusion test was conducted for E. coli ATCC 25922 and S. aureus ATCC 6538 cultures. Copper oxychloride was added at different concentrations (4,250 ppm, 8,500 ppm, 17,000 ppm, 32,000 ppm, 60,000 ppm, 125,000 ppm).

S. aureus ATCC 6538 [2] = experiment: Copper oxychloride agar diffusion test; conditions: 4,250-125,000 ppm tested, 37° C., 24 hours
Protocol: as §1

E. coli ATCC 25922 [3] = experiment: Copper oxychloride dilution test
Protocol: (§2) Additionally, a dilution test was performed using a 250,000 ppm ([…]) stock solution of copper oxychloride. A gradient was prepared using aliquots from 2,500 ppm to 100,000 ppm. A 3×10^5 CFU/mL bacterial culture of S. aureus ATCC 6538 and a 1.25×10^6 CFU/mL culture of E. coli ATCC 25922 were added to each solution.

S. aureus ATCC 6538 [4] = experiment: Copper oxychloride dilution test; conditions: 5,000 ppm
Protocol: as §2

[5] = repeated test, 5,000 ppm (bacterium not named)

## [Cl-].[Cu+2].[Cu+2].[OH-].[OH-].[OH-] [copper oxychloride]
E. coli ATCC 25922 [1]
  concentration at which zones of growth inhibition were observed: 17,000 ppm
S. aureus ATCC 6538 [2]
  concentration at which zones of growth inhibition were observed: 17,000 ppm
E. coli ATCC 25922 [3]; 2,500 ppm
  % Efficiency: 96.0%
  bacterial growth: still grew
E. coli ATCC 25922 [3]; 2,500 ppm, initial count 1.25 × 10^6 CFU/mL
  Final Count: 5 × 10^4 CFU/mL
E. coli ATCC 25922 [3]; [5]
  bacteria eliminated: 99.9%
  bacterial growth: no bacterial growth was observed
S. aureus ATCC 6538 [4]
  % Efficiency: 99.9%
  bacterial growth: no growth
S. aureus ATCC 6538 [4]; initial count 3 × 10^5 CFU/mL
  Final Count: 2 × 10^2 CFU/mL
